Experimental data reported in US20100151015A1 (priority 2008, published 2010).
Each block holds one compound with its values, some of them ahead of it.

Key:
[1] = Solubility of Melperone HCl in various media; assay type: physicochemical
[2] = cited from earlier work
[3] = human, in vivo; cited from earlier work
[4] = tested on: psychosis in patients with PD; conditions: cited from earlier work
[5] = cited from earlier work; remark: listed apart in the source
[6] = tested on: psychosis associated with PD; conditions: initial open-label studies; cited from earlier work

solubility ([1]; ethanol, organic solvent or mixture): 88.5 mg/mL
solubility ([1]; phosphate buffer, aqueous buffer, pH 4.5 (phosphate)): 800 mg/mL
solubility ([1]; phosphate buffer, aqueous buffer, pH 6.8 (phosphate)): 800 mg/mL
solubility ([1]; phosphate buffer, aqueous buffer, pH 7.0 (phosphate)): ≥ 100 mg/mL
solubility ([1]; phosphate buffer, aqueous buffer, pH 7.1 (phosphate)): 51.3 mg/mL
solubility ([1]; phosphate buffer, aqueous buffer, pH 7.5 (phosphate)): 25.6 mg/mL
solubility ([1]; purified water, water): 800 mg/mL
solubility ([1]; simulated gastric fluid, pH 1.2 (0.1N HCl)): 700 mg/mL
Compound: CC1CCN(CCCC(=O)c2ccc(F)cc2)CC1.Cl [Melperone HCl, 1-(4-fluorophenyl)-4-(4-methyl-1-piperidinyl)-1-butanone hydrochloride]
pKa [2]: 9.1

Solubility in aqueous solutions ([1]; higher pH values (above pH=7.5)): poorly soluble
Solubility in aqueous solutions ([1]; pH range from about 1.2 up to about pH 6.8): freely soluble
Compound: CC1CCN(CCCC(=O)c2ccc(F)cc2)CC1 [melperone]
incidence of extrapyramidal side effect (EPS) or tardive dyskinesia [3]: low incidence
time over which efficacy was maintained ([4]; mean daily dose of 37.5 mg): 2 years
efficacy in the treatment of psychosis in patients with PD ([4]; proof-of-concept study): has shown efficacy
onset of efficacy ([4]; proof-of-concept study): rapid (within a week)
mean Tmax ([5]; oral tablet administration): 1.5 to 3.0 h
absolute oral bioavailability ([5]; oral, extensive first-pass metabolism): 50-70%

Compound: OCCOCCN1CCN(C2=Nc3ccccc3Sc3ccccc32)CC1 [quetiapine]
efficacy in psychosis associated with PD [6]: has shown efficacy
patients with worsening of motor symptoms of PD [6]: up to 30%
